# Target: T1, C-X-C chemokine receptor type 2 (Homo sapiens, UniProt P25025)
# T1 sequence (P25025 whole entry): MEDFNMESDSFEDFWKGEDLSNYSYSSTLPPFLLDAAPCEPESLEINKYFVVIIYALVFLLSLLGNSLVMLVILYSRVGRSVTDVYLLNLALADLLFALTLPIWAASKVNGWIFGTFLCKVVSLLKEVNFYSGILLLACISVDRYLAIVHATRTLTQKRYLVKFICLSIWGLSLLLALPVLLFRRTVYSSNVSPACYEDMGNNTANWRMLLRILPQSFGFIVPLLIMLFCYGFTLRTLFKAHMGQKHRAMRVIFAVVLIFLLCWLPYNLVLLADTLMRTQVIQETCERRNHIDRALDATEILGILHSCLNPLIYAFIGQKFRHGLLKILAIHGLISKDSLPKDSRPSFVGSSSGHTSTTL
# Assay: Displacement of [125I]IL8 from human CXCR2 expressed in CHO cells
row,IC50,Structure (SMILES)
1,10 nM,"CC(C)Nc1c(Nc2cccc(C(=O)N(C)C)c2O)c(=O)c1=O [2-hydroxy-3-(2-(isopropylamino)-3,4-dioxocyclobut-1-enylamino)-N,N-dimethylbenzamide]"
2,10 nM,"CN(C)C(=O)c1cccc(Nc2c(NC3CCCCC3)c(=O)c2=O)c1O [3-(2-(cyclohexylamino)-3,4-dioxocyclobut-1-enylamino)-2-hydroxy-N,N-dimethylbenzamide]"
